The text below walks through data of ChEMBL document CHEMBL4184137, “Lysine Deacetylase Inhibitors in Parasites: Past, Present, and Future Perspectives” (J Med Chem, 2017).

The test system of data set [1] is Plasmodium falciparum. In words: Gametocytocidal activity against transgenic GFP-fused Plasmodium falciparum NF54 late stage gametocytes after 72 hrs by Mitotracker Red CMH2XRos staining based microscopic method. The class given is functional, organism-based. As to conditions: NF54, 72 h.
Data set [2] concerns Plasmodium falciparum. Briefly: Gametocytocidal activity against transgenic GFP-fused Plasmodium falciparum NF54 early stage gametocytes after 72 hrs by Mitotracker Red CMH2XRos staining based microscopic method. The class given is functional, organism-based. The following applies: NF54, 72 h.
Data set [3] has as its system Plasmodium falciparum. In words: Antiplasmodial activity against Plasmodium falciparum 3D7 assessed as growth inhibition after 24 hrs by measuring incorporation of [3H]-hypoxanthine by liquid scintillation counting method. The class given is functional, organism-based.
The target in data set [4] is T1, NAD-dependent protein deacetylase sirtuin-1 (Homo sapiens, UniProt Q96EB6).
T1 sequence (Q96EB6 whole entry): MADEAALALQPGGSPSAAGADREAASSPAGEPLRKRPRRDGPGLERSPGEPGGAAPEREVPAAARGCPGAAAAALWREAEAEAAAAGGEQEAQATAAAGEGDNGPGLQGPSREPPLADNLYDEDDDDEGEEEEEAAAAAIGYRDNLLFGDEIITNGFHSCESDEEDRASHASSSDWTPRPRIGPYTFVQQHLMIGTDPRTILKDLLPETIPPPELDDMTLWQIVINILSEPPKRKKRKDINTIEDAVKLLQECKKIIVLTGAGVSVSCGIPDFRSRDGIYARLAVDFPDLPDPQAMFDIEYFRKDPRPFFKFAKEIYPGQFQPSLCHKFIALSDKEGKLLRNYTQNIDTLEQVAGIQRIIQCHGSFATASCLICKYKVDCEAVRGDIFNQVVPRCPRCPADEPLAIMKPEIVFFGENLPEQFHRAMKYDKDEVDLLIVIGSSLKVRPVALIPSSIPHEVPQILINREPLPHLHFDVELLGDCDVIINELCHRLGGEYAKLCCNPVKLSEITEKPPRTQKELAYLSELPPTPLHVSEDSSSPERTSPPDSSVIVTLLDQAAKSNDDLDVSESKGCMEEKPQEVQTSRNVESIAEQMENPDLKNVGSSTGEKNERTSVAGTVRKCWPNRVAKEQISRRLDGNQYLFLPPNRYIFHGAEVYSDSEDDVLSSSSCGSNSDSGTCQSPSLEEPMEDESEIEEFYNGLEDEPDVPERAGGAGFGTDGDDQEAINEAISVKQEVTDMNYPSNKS
In words: Inhibition of human SIRT1.

Data set [5] is described as follows: Inhibition of Plasmodium falciparum Sir2A.
A short description of data set [6]: Inhibition of recombinant Trypanosoma cruzi Sir2rp3.
Another data set relates to Trypanosoma cruzi. Briefly: Antitrypanosomal activity against epimastigotes of Trypanosoma cruzi […] by Alamar Blue assay. The data set is classed as functional, organism-based. Background: Alamar Blue is a resazurin reagent that responds to reducing activity.
The test system of data set [7] is Schistosoma mansoni. In words: Antiparasitic activity against Schistosoma mansoni assessed cell viability at 20 uM after 4 days. The data set is classed as functional.
For data set [8], the system named is Schistosoma mansoni. Briefly: Antiparasitic activity against Schistosoma mansoni assessed as cumulative egg reduction at 20 uM. The data set is classed as functional. Details: scale not given: the % may be the effect or the level left.
Data set [9] concerns Schistosoma mansoni. Briefly: Antiparasitic activity against Schistosoma mansoni assessed as pairing at 20 uM after 5 days relative to control. The class given is functional.
The test system of data set [10] is Leishmania infantum. In words: Antileishmanial activity against amastigote stage of Leishmania infantum MHOM/MA671TMAP263 expressing luciferase after 72 hrs by luciferase assay. The class given is functional, organism-based. The following applies: MHOM/MA671TMAP263, 72 h.
The subject of data set [11] is Schistosoma mansoni. Briefly: Antiparasitic activity against Schistosoma mansoni assessed cell viability at 20 uM after 5 days. The class given is functional.
The subject of data set [12] is Leishmania infantum. Briefly: Antiproliferative activity against amastigote stage of Leishmania infantum measured for 1 min and 45 secs by propidium iodide staining-based flow cytometry. The class given is functional, organism-based. A general note: Flow cytometry measures light scatter and fluorescence of single cells or particles in a stream.
Data set [13] deals with Leishmania infantum. In words: Antiproliferative activity against promastigote stage of Leishmania infantum measured for 1 min and 45 secs by propidium iodide staining-based flow cytometry. The class given is functional, organism-based.
Data set [14] has as its system Schistosoma mansoni. In words: Antiparasitic activity against Schistosoma mansoni assessed as pairing at 20 uM after 6 days relative to control. The class given is functional.
In data set [15] the test system is Leishmania donovani. In words: Antilieshmanial activity against amastigote stage of Leishmania donovani by fluorimetric assay. The class given is functional, organism-based.
Data set [16] has as its system Plasmodium falciparum. In words: Antimalarial activity against Plasmodium falciparum using Malstat reagent by parasite lactate dehydrogenase assay. The class given is functional, organism-based.
Data set [17] can be described thus: Selectivity index, ratio of IC50 for African green monkey Vero cells to IC50 for Plasmodium falciparum D6. The following applies: read-out: Ratio IC50. The data set is classed as toxicity.
In data set [18] the test system is Leishmania donovani. In words: Antilieshmanial activity against promastigote stage of Leishmania donovani by fluorimetric assay. The data set is classed as functional, organism-based.
Data set [19] in a line: Selectivity index, ratio of IC50 for African green monkey Vero cells to IC50 for Plasmodium falciparum W2. The data set is classed as toxicity. The following applies: read-out: Ratio IC50.
For the next data set, the target named is T2, Histone deacetylase (Plasmodium falciparum, UniProt Q9XYC7).
T2 sequence (Q9XYC7 whole entry): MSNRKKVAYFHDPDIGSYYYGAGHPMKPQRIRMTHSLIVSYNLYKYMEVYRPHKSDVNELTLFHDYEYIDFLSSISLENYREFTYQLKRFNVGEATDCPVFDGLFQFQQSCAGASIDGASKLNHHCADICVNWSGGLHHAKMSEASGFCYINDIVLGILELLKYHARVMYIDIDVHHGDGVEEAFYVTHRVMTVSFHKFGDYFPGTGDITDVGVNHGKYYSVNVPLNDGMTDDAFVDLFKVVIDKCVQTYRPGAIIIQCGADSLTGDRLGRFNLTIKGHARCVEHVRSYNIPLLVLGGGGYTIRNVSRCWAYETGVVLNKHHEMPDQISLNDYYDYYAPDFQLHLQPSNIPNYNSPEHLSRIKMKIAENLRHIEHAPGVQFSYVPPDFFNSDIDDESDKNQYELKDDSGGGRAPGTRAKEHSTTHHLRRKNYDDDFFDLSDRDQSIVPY
In words: Inhibition of recombinant Plasmodium falciparum HDAC1 using HDAC substrate-3 after 30 mins by fluorescence assay.

pEC50, pIC50: −log10 of the molar value. *1 amine or outer side, *2 acyl side, *3 side chain or, on linkers, in order; H or OH if unused. Where a SMILES comes first, the peptide text is derived from it. Bridges are numbered along the chain shown (N, C = ends). [ ]: non-standard residue; d: D form. X1 = CC(C)CCCCCCCCC[C@H](CC(=O)[*:1])O[*:2]

The pIC50 is −log10 of the IC50, conventionally taken in molar units. With `O=C(CCCCCCC(=O)Nc1ccccc1)NO` [VORINOSTAT], the pIC50 in the data set with Plasmodium falciparum [1] and in the data set with Plasmodium falciparum [2] was 5.18 to 5.77 each time.

For `CC(C)CCCCCCCCC[C@@H]1CC(=O)N[C@@H](CCC(=O)O)C(=O)N[C@@H](CC(C)C)C(=O)N[C@H](CC(C)C)C(=O)N[C@@H](C(C)C)C(=O)N[C@@H](CC(=O)O)C(=O)N[C@H](CC(C)C)C(=O)N[C@@H](CC(C)C)C(=O)O1` [SURFACTIN] (EL[dL]VD[dL]L; linker N-C via X1), the values for the pIC50 (in the data set on Plasmodium falciparum [3]; in data set [4]; in data set [5]) were 5.05, less than 3.22 and 4.46, respectively.

As a reminder, the pEC50 is the EC50 on a negative log10 scale, so that one unit is a factor of ten. With `CC(C(=O)Nc1cccc(/N=C/c2c(O)ccc3ccccc23)c1)c1ccccc1` (centres undefined) [SALERMIDE], in data set [6], the pIC50 was 6.00. The same compound had a pEC50 in the data set with Trypanosoma cruzi of 4.97. Further, the figures for the Activity in the data set on Schistosoma mansoni [7], with Schistosoma mansoni [8] and in the data set with Schistosoma mansoni [9] were 100%, 95% and 100%, respectively.

In the case of `CC(NC(=O)c1ccccc1/N=C/c1c(O)ccc2ccccc12)c1ccccc1` (centres undefined) [SIRTINOL], the pIC50 is 4.52 in the data set on Leishmania infantum [10]; 4.89 to 5.05 in the data set on Plasmodium falciparum [3]; 4.52 in the data set with Leishmania infantum [12]; less than 4.22 in the data set on Leishmania infantum [13]; less than 4.30 in data set [5]. Also, the Activity was determined as 100% with Schistosoma mansoni [11], 75% with Schistosoma mansoni [14] and 42% in the data set with Schistosoma mansoni [8].

Consider `CC[C@H]1OC(=O)[C@H](C)[C@@H](O[C@H]2C[C@@](C)(OC)[C@@H](O)[C@H](C)O2)[C@H](C)[C@@H](O[C@@H]2O[C@H](C)C[C@H](N(C)Cc3ccc(-c4cn(CCCCCCCCCC(=O)NO)nn4)cc3)[C@H]2O)[C@](C)(O)C[C@@H](C)C(=O)[C@H](C)[C@@H](O)[C@]1(C)O`, for which the pIC50 was 5.33 with Leishmania donovani [15], 5.88 to 6.12 in the data set with Plasmodium falciparum [16], 5.49 in the data set on Leishmania donovani [18] and 6.40 at Histone deacetylase. Also, the selectivity ratio in data set [17] was more than 3.4; in [19], more than 6.
